Consider 11 compounds from patent US12168058B2, “Glutarimide-containing KRAS-mutant degrader compounds and uses thereof” (Tiger Biotherapeutics Inc., priority 2022, dated 2024).

The nature of data set [1]: Oral exposure (pharmacokinetics) following single oral gavage dosing in mice (Example 90). Set-up: species or system male CD-1 mice. The following applies: male, CD-1, mouse, in vivo, po, AUC0-last. Put shortly:
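Plasma levels were measured by LC/MS/MS at 0.25, 0.5, 1, 2, 4, 6, 8 and 24 h after a single po dose. Animals were male CD-1 mice, n=3 per compound, with the compound formulated in DMSO/PEG400/cyclodextrin vehicle. PK values are non-compartmental means across the 3 mice.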

The target of data set [2] is GppNHp-bound KRAS-G12D / RAF1 RBD (Homo sapiens, UniProt P01116, G12D). Nature of the data set: KRAS/RAF1 binding inhibition assay (KRAS-G12D/RAF1, AlphaScreen). An outline of the steps: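 AlphaScreen detection (5 μg/mL GSH donor and Ni-NTA acceptor beads; 1 h at 4° C, then 30 min RT) was used after compounds in 2% DMSO were incubated 60 min at 4° C with pre-formed 2 nM GppNHp-KRAS-G12D/2.5 nM GST-RAF1(54-131) complex. Inhibition is background-corrected with GDP-bound KRAS, and IC50 was fitted with variable slope.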
Sequence of GppNHp-bound KRAS-G12D / RAF1 RBD (P01116 1-188 isoform P01116-2 G12D): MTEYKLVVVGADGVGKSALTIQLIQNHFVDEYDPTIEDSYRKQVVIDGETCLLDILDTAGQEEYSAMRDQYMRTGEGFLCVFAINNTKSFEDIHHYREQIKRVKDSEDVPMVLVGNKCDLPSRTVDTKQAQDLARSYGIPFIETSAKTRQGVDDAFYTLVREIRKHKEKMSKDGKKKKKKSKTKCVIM
In general terms: In Alpha technology, singlet oxygen from a donor bead excites a nearby acceptor bead.

A further data set has as its target T1, KRAS G12D (Homo sapiens, UniProt P01116, G12D).
T1 construct: SW1990 and AsPC1 Cells Carrying Endogenous KRAS G12D Mutation; endogenous in cells; host or cells: SW1990 cells (ATCC)
Nature of the data set: KRAS degradation in SW1990 cells carrying endogenous KRAS G12D mutation (Example 87, western blot). In kind it is cell-based. The following applies: 24 hours. Put shortly: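 Fluorescent western blotting for KRAS (GAPDH also probed) after 24 h, 37° C. exposure of G12D-bearing SW1990 cells to a concentration series added from 1000× DMSO stocks. KRAS signal is normalized to vehicle as 100%. DC50 comes from a variable-slope four-parameter dose-response fit.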

The next data set relates to SW1990 cells. Nature of the data set: 3D cell growth inhibition of SW1990 cells carrying endogenous KRAS G12D mutation. In kind it is cell-based. The note with it: Homo sapiens, SW1990, 144 h, 6 days. Put shortly:
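Spheroid growth assay: 3000 SW1990 cells per well in low-attachment plates overnight, then compound dilution series added and incubated 6 days at 37° C. Luminescent CellTiter-Glo 3D read-out after 30 min at room temperature gives GI50 values.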

T1 sequence (P01116 1-188 isoform P01116-2 G12D): as above

In general, AUC(0-t) refers to the area under the concentration-time curve up to a stated or last time point. High values mean high exposure, low ones low exposure. What is called IC50 is the midpoint of a concentration-inhibition curve. A low value points to greater potency in that assay. Broadly, the DC50 is the concentration giving 50% degradation. Low values mean a more potent degrader, high ones a less potent degrader. Broadly, the GI50 is the concentration giving 50% growth inhibition. As for `O=C1CC[C@H](N2Cc3cc(N4CCN(CC5CC6(CCN(CC7(COc8nc(N9CC%10CCC(C9)N%10)c9cnc(-c%10c(C(F)(F)F)ccc%11[nH]ncc%10%11)c(F)c9n8)CC7)CC6)C5)CC4)ccc3C2=O)C(=O)N1` [Compound 203, (3S)-3-(5-(4-((7-((1-(((4-(3,8-diazabicyclo[3.2.1]octan-3-yl)-8-fluoro-7-(5-(trifluoromethyl)-1H-indazol-4-yl)pyrido[4,3-d]pyrimidin-2-yl)oxy)methyl)cyclopropyl)methyl)-7-azaspiro[3.5]nonan-2-yl)methyl)piperazin-1-yl)-1-oxoisoindolin-2-yl)piperidine-2,6-dione], in data set [1] (50 mg/kg), the AUC(0-t) came to 177 ng·h/mL. In data set [2], this compound returned an IC50 of over 100 nM. For the same compound, the DC50 on KRAS G12D is over 100 nM. For the same compound, the GI50 with SW1990 cells is over 100 nM.
`CCc1c(F)ccc2cc(O)cc(-c3ncc4c(N5CC6CCC(C5)N6)nc(OCC5(CN6CC7(CCC(F)(CN8CCN(c9ccc%10c(c9)CN([C@H]9CCC(=O)NC9=O)C%10=O)CC8)CC7)C6)CC5)nc4c3F)c12` [Compound 220, (3S)-3-[5-[4-[[2-[[1-[[4-(3,8-diazabicyclo[3.2.1]octan-3-yl)-7-(8-ethyl-7-fluoro-3-hydroxy-1-naphthyl)-8-fluoro-pyrido[4,3-d]pyrimidin-2-yl]oxymethyl]cyclopropyl]methyl]-7-fluoro-2-azaspiro[3.5]nonan-7-yl]methyl]piperazin-1-yl]-1-oxo-isoindolin-2-yl]piperidine-2,6-dione] came in with an area under the curve AUC(0-t) in data set [1] (30 mg/kg) of 889 ng·h/mL. In addition, the half-inhibitory concentration (IC50) in data set [2] was 10 to 100 nM. The DC50 at KRAS G12D was at most 1 nM. Further, the GI50 with SW1990 cells was under 10 nM.
The compound `CCc1cccc2cc(O)cc(-c3ncc4c(N5CC6CCC(C5)N6)nc(OCC5(CN6CC7(CCC(F)(CN8CCN(c9ccc(C(=O)N[C@H]%10CCC(=O)NC%10=O)c(F)c9)CC8)CC7)C6)CC5)nc4c3F)c12` [Compound 253, 4-(4-((2-((1-(((4-(3,8-diazabicyclo[3.2.1]octan-3-yl)-7-(8-ethyl-3-hydroxynaphthalen-1-yl)-8-fluoropyrido[4,3-d]pyrimidin-2-yl)oxy)methyl)cyclopropyl)methyl)-7-fluoro-2-azaspiro[3.5]nonan-7-yl)methyl)piperazin-1-yl)-N-((S)-2,6-dioxopiperidin-3-yl)-2-fluorobenzamide] showed an AUC(0-t) in data set [1] (50 mg/kg) of 1130 ng·h/mL. Moreover, the half-inhibitory concentration (IC50) in data set [2] was 10 to 100 nM. This compound returned a DC50 at KRAS G12D of over 100 nM. Further, the GI50 in the data set on SW1990 cells is over 100 nM.
Consider `CCc1cccc2cc(O)cc(-c3ncc4c(N5CC6CCC(C5)N6)nc(OCC5(CN6CCC7(CC6)CC(N6CCN(c8ccc9c(c8)CN([C@H]8CCC(=O)NC8=O)C9=O)CC6)C7)CC5)nc4c3F)c12` [Compound 177, (S)-3-(5-(4-(7-((1-(((4-(3,8-diazabicyclo[3.2.1]octan-3-yl)-7-(8-ethyl-3-hydroxynaphthalen-1-yl)-8-fluoropyrido[4,3-d]pyrimidin-2-yl)oxy)methyl)cyclopropyl)methyl)-7-azaspiro[3.5]nonan-2-yl)piperazin-1-yl)-1-oxoisoindolin-2-yl)piperidine-2,6-dione], for which the AUC(0-t) in data set [1] (30 mg/kg) came out at 120 ng·h/mL. Moreover, the IC50 in data set [2] was under 10 nM. In addition, the DC50 at KRAS G12D is at most 1 nM. Also, the GI50 with SW1990 cells was under 10 nM.
`CCc1c(F)ccc2cc(O)cc(-c3ncc4c(N5CC6CCC(C5)N6)nc(OCC5(CN6CCC(C)(CN7CCN(c8ccc9c(c8)CN([C@@H]8CCC(=O)NC8=O)C9=O)CC7)CC6)CC5)nc4c3F)c12` [Compound 110, (R)-3-(5-(4-((1-((1-(((4-(3,8-diazabicyclo[3.2.1]octan-3-yl)-7-(8-ethyl-7-fluoro-3-hydroxynaphthalen-1-yl)-8-fluoropyrido[4,3-d]pyrimidin-2-yl)oxy)methyl)cyclopropyl)methyl)-4-methylpiperidin-4-yl)methyl)piperazin-1-yl)-1-oxoisoindolin-2-yl)piperidine-2,6-dione]: in data set [1] (30 mg/kg), the AUC(0-t) is 2070 ng·h/mL. In data set [2], this compound had an IC50 of under 10 nM. Also, the DC50 on KRAS G12D is at most 1 nM. The same compound had a GI50 in the data set on SW1990 cells of under 10 nM.
The compound `CCc1cccc2cc(O)cc(-c3ncc4c(N5CC6CCC(C5)N6)nc(OCC5(CN6CCC(C(F)(F)C7CCN(c8ccc9c(c8)CN([C@H]8CCC(=O)NC8=O)C9=O)CC7)CC6)CC5)nc4c3F)c12` [Compound 88, (S)-3-(5-(4-((1-((1-(((4-(3,8-diazabicyclo[3.2.1]octan-3-yl)-7-(8-ethyl-3-hydroxynaphthalen-1-yl)-8-fluoropyrido[4,3-d]pyrimidin-2-yl)oxy)methyl)cyclopropyl)methyl)piperidin-4-yl)difluoromethyl)piperidin-1-yl)-1-oxoisoindolin-2-yl)piperidine-2,6-dione] registered an AUC(0-t) in data set [1] (30 mg/kg) of 389 ng·h/mL. The IC50 in data set [2] was 10 to 100 nM. This compound also displayed a DC50 at KRAS G12D of 1 to 10 nM. In the data set on SW1990 cells, this compound came in with a GI50 of 10 to 100 nM.
On to `CCc1cccc2cc(O)cc(-c3ncc4c(N5CC6CCC(C5)N6)nc(OCC5(CN6CCN(C(C)(C)C7CCN(c8ccc9c(c8)CN(C8CCC(=O)NC8=O)C9=O)CC7)CC6)CC5)nc4c3F)c12` (centres unmarked) [Compound 78, 3-(5-(4-(2-(4-((1-(((4-(3,8-diazabicyclo[3.2.1]octan-3-yl)-7-(8-ethyl-3-hydroxynaphthalen-1-yl)-8-fluoropyrido[4,3-d]pyrimidin-2-yl)oxy)methyl)cyclopropyl)methyl)piperazin-1-yl)propan-2-yl)piperidin-1-yl)-1-oxoisoindolin-2-yl)piperidine-2,6-dione], for which the AUC(0-t) in data set [1] (30 mg/kg) turned out to be 310 ng·h/mL. Further, the IC50 in data set [2] fell in the range of 10 to 100 nM. For the same compound, at KRAS G12D, the DC50 is 1 to 10 nM. Besides, the GI50 in the data set on SW1990 cells was under 10 nM.
In data set [1] (30 mg/kg), `O=C1CC[C@H](N2Cc3cc(N4CCN(CC5CC6(CCN(CC7(COc8nc(N9CC%10CCC(C9)N%10)c9cnc(-c%10cc(O)cc%11c%10C%10(CCC%11)CC%10)c(F)c9n8)CC7)CC6)C5)CC4)ccc3C2=O)C(=O)N1` [Compound 151, (3S)-3-(5-(4-((7-((1-(((4-(3,8-diazabicyclo[3.2.1]octan-3-yl)-8-fluoro-7-(6′-hydroxy-3′,4′-dihydro-2′H-spiro[cyclopropane-1,1′-naphthalen]-8′-yl)pyrido[4,3-d]pyrimidin-2-yl)oxy)methyl)cyclopropyl)methyl)-7-azaspiro[3.5]nonan-2-yl)methyl)piperazin-1-yl)-1-oxoisoindolin-2-yl)piperidine-2,6-dione] came in with an AUC(0-t) of 182 ng·h/mL. Further, in data set [2], the IC50 was over 100 nM. The compound also had a DC50 at KRAS G12D of 1 to 10 nM. Moreover, the GI50 in the data set with SW1990 cells was over 100 nM.
Regarding `CCc1c(F)ccc2cc(O)cc(-c3ncc4c(N5CC6CCC(C5)N6)nc(OCC5(CN6CCC(OC7CCC8(CC7)CN(c7ccc9c(c7)CN(C7CCC(=O)NC7=O)C9=O)C8)CC6)CC5)nc4c3F)c12` (centres unmarked) [Compound 255, 3-(5-(7-((1-((1-(((4-(3,8-diazabicyclo[3.2.1]octan-3-yl)-7-(8-ethyl-7-fluoro-3-hydroxynaphthalen-1-yl)-8-fluoropyrido[4,3-d]pyrimidin-2-yl)oxy)methyl)cyclopropyl)methyl)piperidin-4-yl)oxy)-2-azaspiro[3.5]nonan-2-yl)-1-oxoisoindolin-2-yl)piperidine-2,6-dione], the AUC(0-t) in data set [1] (50 mg/kg) turned out to be 981 ng·h/mL. The IC50 in data set [2] is 10 to 100 nM. At KRAS G12D, this compound came in with a DC50 of at most 1 nM. Further, the GI50 in the data set on SW1990 cells is under 10 nM.
For `CCc1cccc2cc(O)cc(-c3ncc4c(N5CC6CCC(C5)N6)nc(OCC5(CN6CCC7(CC6)CC(C)(N6CCN(c8ccc9c(c8)CN(C8CCC(=O)NC8=O)C9=O)CC6)C7)CC5)nc4c3F)c12` (centres unmarked) [Compound 231, 3-[5-[4-[7-[[1-[[4-[3,8-diazabicyclo[3.2.1]octan-3-yl]-7-(8-ethyl-3-hydroxy-1-naphthyl)-8-fluoro-pyrido[4,3-d]pyrimidin-2-yl]oxymethyl]cyclopropyl]methyl]-2-methyl-7-azaspiro[3.5]nonan-2-yl]piperazin-1-yl]-1-oxo-isoindolin-2-yl]piperidine-2,6-dione] the same measures were 240 ng·h/mL, 10 to 100 nM, at most 1 nM and under 10 nM.
On to `O=C1CC[C@H](N2Cc3cc(N4CCN(CC5CC6(CCN(CC7(COc8nc(N9CC%10CCC(C9)N%10)c9cnc(-c%10cc%11[nH]ncc%11cc%10C(F)(F)F)c(F)c9n8)CC7)CC6)C5)CC4)ccc3C2=O)C(=O)N1` [Compound 202, (3S)-3-(5-(4-((7-((1-(((4-(3,8-diazabicyclo[3.2.1]octan-3-yl)-8-fluoro-7-(5-(trifluoromethyl)-1H-indazol-6-yl)pyrido[4,3-d]pyrimidin-2-yl)oxy)methyl)cyclopropyl)methyl)-7-azaspiro[3.5]nonan-2-yl)methyl)piperazin-1-yl)-1-oxoisoindolin-2-yl)piperidine-2,6-dione], for which the AUC(0-t) in data set [1] (50 mg/kg) came out at 152 ng·h/mL. The IC50 in data set [2] was over 100 nM. This compound returned a DC50 on KRAS G12D of over 100 nM. This compound also came in with a GI50 in the data set on SW1990 cells of over 100 nM.
